# According to patent US10526327B2, “Histone demethylase inhibitors” (CELGENE QUANTICEL RESEARCH, INC., priority 2013, dated 2020):
# Biological target: T1, Jarid1A (Homo sapiens, UniProt P29375)
# T1 construct: purchased BPS Bioscience 50110
# T1 sequence (P29375 1-1090): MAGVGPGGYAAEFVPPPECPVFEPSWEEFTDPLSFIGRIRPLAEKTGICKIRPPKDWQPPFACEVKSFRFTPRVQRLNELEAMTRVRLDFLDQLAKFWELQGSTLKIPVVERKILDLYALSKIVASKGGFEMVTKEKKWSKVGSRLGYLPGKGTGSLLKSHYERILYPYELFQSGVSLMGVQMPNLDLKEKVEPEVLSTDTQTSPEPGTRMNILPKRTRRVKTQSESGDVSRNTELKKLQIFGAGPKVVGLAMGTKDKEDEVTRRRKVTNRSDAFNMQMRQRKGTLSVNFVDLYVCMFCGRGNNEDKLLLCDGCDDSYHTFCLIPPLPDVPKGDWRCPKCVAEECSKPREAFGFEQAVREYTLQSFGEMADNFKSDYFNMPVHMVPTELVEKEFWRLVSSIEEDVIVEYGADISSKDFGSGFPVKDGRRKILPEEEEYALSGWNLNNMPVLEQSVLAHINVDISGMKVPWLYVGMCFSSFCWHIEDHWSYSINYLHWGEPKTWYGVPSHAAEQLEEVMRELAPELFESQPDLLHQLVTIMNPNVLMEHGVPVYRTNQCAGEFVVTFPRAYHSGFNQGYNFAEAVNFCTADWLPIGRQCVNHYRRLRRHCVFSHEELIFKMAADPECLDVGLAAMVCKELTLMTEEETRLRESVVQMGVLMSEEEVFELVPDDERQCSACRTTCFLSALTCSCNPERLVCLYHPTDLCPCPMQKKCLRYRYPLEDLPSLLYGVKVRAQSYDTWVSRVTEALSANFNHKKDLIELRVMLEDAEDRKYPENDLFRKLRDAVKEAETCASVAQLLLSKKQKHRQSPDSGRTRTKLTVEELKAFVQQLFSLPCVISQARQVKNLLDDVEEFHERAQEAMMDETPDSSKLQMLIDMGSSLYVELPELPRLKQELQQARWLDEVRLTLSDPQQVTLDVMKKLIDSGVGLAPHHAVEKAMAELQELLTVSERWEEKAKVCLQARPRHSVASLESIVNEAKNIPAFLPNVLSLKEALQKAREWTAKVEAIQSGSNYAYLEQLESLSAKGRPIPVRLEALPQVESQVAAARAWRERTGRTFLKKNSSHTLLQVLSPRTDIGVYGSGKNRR
# Assay: Jarid1A in vitro enzyme inhibition assay (TR-FRET)
# Type: biochemical
# In short: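 Demethylation of 300 nM biotin-H3K4me3 peptide by 1 nM baculovirus-expressed Jarid1A (aa 1–1090) with 2 μM α-ketoglutarate, Fe(II) and ascorbate, pH 7.3, 30 min at room temperature. Stopped with EDTA; H3K4me1-2 product detected by TR-FRET (Eu anti-H3K4me1-2/streptavidin-APC). IC50 fitted from 665/615 ratio over 11-point dilutions.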
row,SMILES,IC50 [nM]
1,"Oc1nc(OCc2coc3ccccc23)nc2cnccc12 [Example 193, 2-(1-benzofuran-3-ylmethoxy)pyrido[3,4-d]pyrimidin-4-ol]",100 to 1000
2,"Oc1nc(OCCOCC(F)(F)F)nc2cnccc12 [Example 23, 2-[2-(2,2,2-trifluoroethoxy)ethoxy]pyrido[3,4-d]pyrimidin-4-ol]",100 to 1000
3,"Oc1nc(OCc2cc(F)ccc2F)nc2cnccc12 [Example 182, 2-[(2,5-difluorophenyl)methoxy]pyrido[3,4-d]pyrimidin-4-ol]",1000 to 10000
4,"CC(C)OCCOc1nc(O)c2ccncc2n1 [Example 29, 2-(2-propan-2-yloxyethoxy)pyrido[3,4-d]pyrimidin-4-ol]",100 to 1000
5,"CC(C)Oc1nc(O)c2ccncc2n1 [Example 1, 2-propan-2-yloxy-3H-pyrido[3,4-d]pyrimidin-4-one]",100 to 1000
6,"Oc1nc(OC2CCc3ccccc32)nc2cnccc12 (stereo not drawn) [Example 192, 2-(2,3-dihydro-1H-inden-1-yloxy)pyrido[3,4-d]pyrimidin-4-ol]",1000 to 10000
7,"Oc1nc(Oc2ccccc2)nc2cnccc12 [Example 34, 2-phenoxypyrido[3,4-d]pyrimidin-4-ol]",≤ 100
8,"Oc1nc(OCC2CCOC2)nc2cnccc12 (stereo not drawn) [Example 27, 2-(oxolan-3-ylmethoxy)pyrido[3,4-d]pyrimidin-4-ol]",100 to 1000
9,"Oc1nc(OCc2ccccc2-c2ccccc2)nc2cnccc12 [Example 185, 2-[(2-phenylphenyl)methoxy]pyrido[3,4-d]pyrimidin-4-ol]",1000 to 10000
10,"Oc1nc(OC2CCOc3ccccc32)nc2cnccc12 (stereo not drawn) [Example 197, 2-(3,4-dihydro-2H-1-benzopyran-4-yloxy)pyrido[3,4-d]pyrimidin-4-ol]",100 to 1000
11,"Oc1nc(OCC2COc3ccccc32)nc2cnccc12 (stereo not drawn) [Example 194, 2-(2,3-dihydro-1-benzofuran-3-ylmethoxy)pyrido[3,4-d]pyrimidin-4-ol]",1000 to 10000
12,"CC(CO)COc1nc(O)c2ccncc2n1 (stereo not drawn) [Example 25, 2-(3-hydroxy-2-methylpropoxy)pyrido[3,4-d]pyrimidin-4-ol]",100 to 1000
13,"Oc1nc(OCc2cccc(F)c2F)nc2cnccc12 [Example 181, 2-[(2,3-difluorophenyl)methoxy]pyrido[3,4-d]pyrimidin-4-ol]",1000 to 10000
14,"CC(C)(O)CCOc1nc(O)c2ccncc2n1 [Example 24, 2-(3-hydroxy-3-methylbutoxy)pyrido[3,4-d]pyrimidin-4-ol]",≤ 100
15,"CCOc1nc(O)c2ccncc2n1 [Example 2, 2-ethoxypyrido[3,4-d]pyrimidin-4-ol]",≤ 100
16,"Oc1nc(OCC2CCc3ccccc3C2)nc2cnccc12 (stereo not drawn) [Example 191, 2-(1,2,3,4-tetrahydronaphthalen-2-ylmethoxy)pyrido[3,4-d]pyrimidin-4-ol]",100 to 1000
17,"Oc1nc(OCCOCc2ccccc2)nc2cnccc12 [Example 30, 2-(2-phenylmethoxyethoxy)pyrido[3,4-d]pyrimidin-4-ol]",100 to 1000
18,"N#Cc1cccc(COc2nc(O)c3ccncc3n2)c1 [Example 32, 3-[(4-hydroxypyrido[3,4-d]pyrimidin-2-yl)oxymethyl]benzonitrile]",100 to 1000

row,SMILES,IC50 [nM]
1,"Oc1nc(OC2CCCc3ccccc32)nc2cnccc12 (stereo not drawn) [Example 196, 2-(1,2,3,4-tetrahydronaphthalen-1-yloxy)pyrido[3,4-d]pyrimidin-4-ol]",1000 to 10000
2,"Oc1nc(OCC2CCCO2)nc2cnccc12 (stereo not drawn) [Example 26, 2-(oxolan-2-ylmethoxy)pyrido[3,4-d]pyrimidin-4-ol]",100 to 1000
3,"Cn1cnc(-c2nccc3c(=O)[nH]cnc23)c1 [Example 198, 8-(1-methylimidazol-4-yl)-3H-pyrido[3,4-d]pyrimidin-4-one]",100 to 1000
4,"Oc1nc(OCC2CCc3ccccc32)nc2cnccc12 (stereo not drawn) [Example 190, 2-(2,3-dihydro-1H-inden-1-ylmethoxy)pyrido[3,4-d]pyrimidin-4-ol]",100 to 1000
5,"Oc1nc(OCc2ccccc2F)nc2cnccc12 [Example 178, 2-[(2-fluorophenyl)methoxy]pyrido[3,4-d]pyrimidin-4-ol]",1000 to 10000
6,"Oc1nc(OC2Cc3ccccc3C2)nc2cnccc12 [Example 189, 2-(2,3-dihydro-1H-inden-2-yloxy)pyrido[3,4-d]pyrimidin-4-ol]",100 to 1000
7,"Oc1nc(OCc2cccc(F)c2)nc2cnccc12 [Example 179, 2-[(3-fluorophenyl)methoxy]pyrido[3,4-d]pyrimidin-4-ol]",1000 to 10000
8,"Oc1nc(OCc2ccc3ccccc3c2)nc2cnccc12 [Example 187, 2-(naphthalen-2-ylmethoxy)pyrido[3,4-d]pyrimidin-4-ol]",1000 to 10000
9,"Oc1nc(OCc2cccc(-c3ccccc3)c2)nc2cnccc12 [Example 186, 2-[(3-phenylphenyl)methoxy]pyrido[3,4-d]pyrimidin-4-ol]",1000 to 10000
10,"Oc1nc(OCc2cccc3ccccc23)nc2cnccc12 [Example 184, 2-(naphthalen-1-ylmethoxy)pyrido[3,4-d]pyrimidin-4-ol]",1000 to 10000
11,"Oc1nc(OCc2ccc(F)cc2)nc2cnccc12 [Example 180, 2-[(4-fluorophenyl)methoxy]pyrido[3,4-d]pyrimidin-4-ol]",1000 to 10000
12,"Oc1nc(OCC2CCOc3ccccc32)nc2cnccc12 (stereo not drawn) [Example 195, 2-(3,4-dihydro-2H-1-benzopyran-4-ylmethoxy)pyrido[3,4-d]pyrimidin-4-ol]",100 to 1000
13,"Oc1nc(OCC2CCCc3ccccc32)nc2cnccc12 (stereo not drawn) [Example 188, 2-(1,2,3,4-tetrahydronaphthalen-1-ylmethoxy)pyrido[3,4-d]pyrimidin-4-ol]",100 to 1000
14,"CC(=O)N(C)CCOc1nc(O)c2ccncc2n1 [Example 28, N-[2-(4-hydroxypyrido[3,4-d]pyrimidin-2-yl)oxyethyl]-N-methylacetamide]",100 to 1000
15,"Cn1ccc(COc2nc(O)c3ccncc3n2)n1 [Example 33, 2-[(1-methylpyrazol-3-yl)methoxy]pyrido[3,4-d]pyrimidin-4-ol]",1000 to 10000
16,"Oc1nc(OCc2ccccc2C(F)(F)F)nc2cnccc12 [Example 177, 2-{[2-(trifluoromethyl)phenyl]methoxy}pyrido[3,4-d]pyrimidin-4-ol]",1000 to 10000
17,"Oc1nc(OCc2c(F)cccc2F)nc2cnccc12 [Example 183, 2-[(2,6-difluorophenyl)methoxy]pyrido[3,4-d]pyrimidin-4-ol]",1000 to 10000
18,"O=C(NCCOc1nc(O)c2ccncc2n1)c1ccccc1 [Example 31, N-[2-(4-hydroxypyrido[3,4-d]pyrimidin-2-yl)oxyethyl]benzamide]",≤ 100
